SMILES strings stand for the structures.

T1 sequence (P22460 whole entry): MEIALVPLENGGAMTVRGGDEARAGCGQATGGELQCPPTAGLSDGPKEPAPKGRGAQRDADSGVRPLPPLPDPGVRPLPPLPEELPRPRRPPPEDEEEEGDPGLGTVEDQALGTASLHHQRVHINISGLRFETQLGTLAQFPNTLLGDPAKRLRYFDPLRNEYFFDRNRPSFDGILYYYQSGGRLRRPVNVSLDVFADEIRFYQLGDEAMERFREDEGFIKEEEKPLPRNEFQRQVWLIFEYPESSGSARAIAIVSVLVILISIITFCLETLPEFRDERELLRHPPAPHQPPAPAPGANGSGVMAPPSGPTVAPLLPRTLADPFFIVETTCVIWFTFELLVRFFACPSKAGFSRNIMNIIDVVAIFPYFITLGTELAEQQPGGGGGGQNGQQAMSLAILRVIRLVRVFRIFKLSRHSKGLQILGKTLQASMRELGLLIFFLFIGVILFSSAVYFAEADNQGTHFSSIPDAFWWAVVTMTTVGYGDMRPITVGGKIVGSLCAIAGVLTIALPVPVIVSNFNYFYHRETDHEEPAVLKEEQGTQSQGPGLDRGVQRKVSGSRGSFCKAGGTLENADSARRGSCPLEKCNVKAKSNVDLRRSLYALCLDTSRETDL

One experiment concerns the target T1, Kv1.5 channels from humans (Homo sapiens, UniProt P22460).
T1 construct: expressed in transfected cells; host or cells: Xenopus laevis oocytes injected with in vitro synthesized RNA
As to the kind of experiment: Kv1.5 currents in Xenopus oocytes, two-microelectrode voltage clamp. The experiment is classed as cell-based.
Details: not given
The protocol:
Kv1.5 channels from humans were expressed in Xenopus oocytes. For this, oocytes from Xenopus laevis were first isolated and defolliculated. RNA encoding Kv1.5 synthesized in vitro was then injected into these oocytes. After Kv1.5 protein expression for 1-7days, Kv1.5 currents were measured on the oocytes using the two-microelectrode voltage clamp technique. The Kv1.5 channels were in this case as a rule activated using voltage jumps to 0 mV and 40 mV lasting 500 ms. The bath was rinsed with a solution of the following composition: NaCl 96 mM, KCl 2 mM, CaCl2 1.8 mM, MgCl2 1 mM, HEPES 5 mM (titrated with NaOH to pH 7.4). These experiments were carried out at room temperature. The following were employed for data acquisition and analysis: Genedamp amplifier (Axon Instruments, Foster City, USA) and MacLab D/A converter and software (AD Instruments, Castle Hill, Australia). The substances according to the invention were tested by adding them in different concentrations to the bath solution. The effects of the substances were calculated as the percentage inhibition of the Kv1.5 control current which was obtained when no substance was added to the solution. The data were then extrapolated using the Hill equation in order to determine the inhibitory concentration IC50 for the respective substances.
Regarding `CC(OC(=O)NCc1ccccc1-c1ccccc1C(=O)NCCc1ccccn1)c1ccc(C(F)(F)F)cc1` (racemic) [1 f], the IC50 is 400 nM.
Same read-out and setting: the figure for `O=C(NCc1ccccc1-c1ccccc1C(=O)NCCc1ccccc1)OCc1ccc(C(F)(F)F)cc1` [1 a] is 6100 nM; for `O=C(NCc1ccccc1-c1ccccc1C(=O)NCCc1ccccc1)OCc1ccccc1` [1 b] it is 3300 nM; for `O=C(NCc1ccccc1-c1ccccc1C(=O)NCCc1ccccn1)OCc1ccc(C(F)(F)F)cc1` [1 d] it is 1000 nM.
Same read-out and setting: the figure for `O=C(NCc1ccccc1-c1ccccc1C(=O)NCCc1ccccn1)OCc1ccc(F)cc1` [1 e] is 500 nM; for `C[C@H](OC(=O)NCc1ccccc1-c1ccccc1C(=O)NCCc1ccccn1)c1ccc(C(F)(F)F)cc1` [1 g] it is 400 nM.
Molecule `C[C@@H](OC(=O)NCc1ccccc1-c1ccccc1C(=O)NCCc1ccccn1)c1ccc(C(F)(F)F)cc1` [1 h] gave an IC50 of 4300 nM.
In the case of `O=C(NCc1ccccc1-c1ccccc1C(=O)NCCc1ccccn1)OCCCC(F)(F)F` [1 i], the IC50 is 1700 nM.
Molecule `CC(OC(=O)NCc1ccccc1-c1ccccc1C(=O)NCCc1ccccn1)c1ccccc1C(F)(F)F` (stereo not drawn) [1 l] showed an IC50 of 1400 nM.
Molecule `CC(OC(=O)NCc1ccccc1-c1ccccc1C(=O)NCCc1ccccn1)c1cccc(C(F)(F)F)c1` (stereo not drawn) [1 m] showed an IC50 of 700 nM.
In turn, `CC(OC(=O)NCc1ccccc1-c1ccccc1C(=O)NCCc1ccccn1)c1c(F)cccc1F` (stereo not drawn) [1 n] gave an IC50 of 1400 nM.
Still for that read-out and setting: the figure for `C[C@@H](OC(=O)NCc1ccccc1-c1ccccc1C(=O)NCc1ccc(F)cc1F)c1ccccc1` [1 o] is 4400 nM.
Still for that read-out and setting: the same measure for `CCC[C@H](OC(=O)NCc1ccccc1-c1ccccc1C(=O)NCCc1ccccn1)c1ccccc1` [1 r]: 800 nM; for `O=C(NCc1ccccc1-c1ccccc1C(=O)NCc1ccc(F)cc1F)OCc1ccc(F)cc1` [1 s]: 1700 nM; for `O=C(NCc1ccccc1-c1ccccc1C(=O)NCc1ccc(F)cc1F)OCCCC(F)(F)F` [1 t]: 1300 nM.
Molecule `O=C(NCc1ccccc1-c1ccccc1C(=O)NCc1ccccn1)OCc1ccccc1` [1 u] had a 50% inhibitory concentration (IC50) of 800 nM.
The same measure, in the same setting: the same measure for `CCCCOC(=O)NCc1ccccc1-c1ccccc1C(=O)NCCC(C)C` [2 d]: 1700 nM; for `CC(C)CCNC(=O)c1ccccc1-c1ccccc1CNC(=O)OCc1ccccc1Cl` [2 e]: 3400 nM.
With `COC(=O)c1ccc(OC(=O)NCc2ccccc2-c2ccccc2C(=O)NCCC(C)C)cc1` [2 h], the half-maximal inhibitory concentration (IC50) came to 2500 nM.
Still for that read-out and setting: the figure for `CC(C)(C)COC(=O)NCc1ccccc1-c1ccccc1C(=O)NCCc1ccccc1` [2 i] is 3300 nM; for `O=C(NCc1ccccc1-c1ccccc1C(=O)NCc1ccc(F)cc1F)Oc1ccc(F)cc1` [2 j] it is 2500 nM; for `O=C(NCc1ccccc1-c1ccccc1C(=O)NCc1ccc(F)cc1F)Oc1ccccc1` [2 k] it is 3800 nM.
Same read-out and setting: the figure for `O=C(NCCc1ccccc1)c1ccccc1-c1ccccc1CNS(=O)(=O)c1ccccc1` [3 d] is 1700 nM; for `O=C(NCc1ccccc1)c1ccccc1-c1ccccc1CNS(=O)(=O)c1cccc(F)c1` [3 k] it is 2400 nM; for `O=C(NCCc1ccccn1)c1ccccc1-c1ccccc1CNS(=O)(=O)c1ccccc1` [3 p] it is 1900 nM.
In turn, `O=C(NCCc1ccccn1)c1ccccc1-c1ccccc1CNS(=O)(=O)c1cccc(F)c1` [3 r] displayed a concentration for half-maximal inhibition (IC50) of 1500 nM. The IC50 values of the last two molecules are within 1.5-fold of each other.
The same measure, in the same setting: the same measure for `COc1ccc(CC(=O)NCc2ccccc2-c2ccccc2C(=O)NCCc2ccccn2)cc1` [4 d]: 1800 nM; for `COc1ccc(CC(=O)NCc2ccccc2-c2ccccc2C(=O)Nc2ccc(OC)cc2)cc1` [4 g]: 3400 nM; for `COc1ccc(NC(=O)c2ccccc2-c2ccccc2CNC(=O)CCc2ccccc2)cc1` [4 h]: 1800 nM.
Same read-out and setting: the figure for `COc1ccc(CC(=O)NCc2ccccc2-c2ccccc2C(=O)NCCc2ccncc2)cc1` [4 j] is 7100 nM; for `CCOc1ccc(CCC(=O)NCc2ccccc2-c2ccccc2C(=O)NCCc2ccccn2)cc1` [4 k] it is 2200 nM; for `CC(CC(=O)NCc1ccccc1-c1ccccc1C(=O)NCCc1ccccn1)c1ccccc1` (stereo not drawn) [4 l] it is 800 nM.
For the molecule `O=C(NCc1ccccc1)NCc1ccccc1-c1ccccc1C(=O)NCCc1ccccn1` [5 c], half-maximal inhibition (IC50) required 7800 nM.
On to `C[C@H](NC(=O)NCc1ccccc1-c1ccccc1C(=O)NCCc1ccccn1)c1ccccc1` [5 d], for which the half-inhibitory concentration (IC50) worked out at 1900 nM.
The same measure, in the same setting: the figure for `C[C@@H](NC(=O)NCc1ccccc1-c1ccccc1C(=O)NCCc1ccccn1)c1ccccc1` [5 e] is 7200 nM; for `CN(Cc1ccccc1)C(=O)c1ccccc1-c1ccccc1CNC(=O)OCc1ccccc1` [6 a] it is 4400 nM.
Same read-out and setting: the same measure for `O=C(NCc1ccccc1-c1ccccc1C(=O)NC1CCCCC1)OCc1ccccc1` [6 b]: 1800 nM.
In the case of `O=C(NCc1ccccc1-c1ccccc1C(=O)Nc1ccccc1)OCc1ccccc1` [6 c], half-maximal inhibition (IC50) required 2500 nM. This IC50 and that of the molecule before are within 1.5-fold of each other.
Same read-out and setting: the same measure for `CN(CCc1ccccn1)C(=O)c1ccccc1-c1ccccc1CNC(=O)OCc1ccccc1` [6 d]: 3100 nM; for `CCCCN(CCCC)C(=O)c1ccccc1-c1ccccc1CNC(=O)OCc1ccccc1` [6 e]: 3600 nM; for `O=C(NCc1ccccc1-c1ccccc1C(=O)NCC(F)(F)F)OCc1ccccc1` [6 h]: 3000 nM.
On the same count and under the same terms, the figure for `O=C(NCc1ccccc1-c1ccccc1C(=O)NCCc1cccc[n+]1[O-])OCc1ccccc1` [7 a] is around 6000 nM; for `O=C(NCc1ccccc1-c1ccccc1C(=O)NCCc1cccnc1)OCc1ccccc1` [8 aa] it is 800 nM; for `O=C(NCc1ccccc1-c1ccccc1C(=O)NCCc1ccncc1)OCc1ccccc1` [8 ab] it is 1200 nM.
On the same count and under the same terms, the figure for `CC(C)C[C@@H](NC(=O)c1ccccc1-c1ccccc1CNC(=O)OCc1ccccc1)C(N)=O` [8 ac] is 1100 nM; for `COC(=O)[C@H](Cc1ccccc1)NC(=O)c1ccccc1-c1ccccc1CNC(=O)OCc1ccccc1` [8 b] it is 900 nM.
Molecule `CC(C)(C)OC(=O)NCc1ccccc1-c1ccccc1C(=O)NCc1ccccn1` [8 d] came in with a concentration for half-maximal inhibition (IC50) of 6400 nM.
As to `CC(C)(C)OC(=O)NCc1ccccc1-c1ccccc1C(=O)Nc1ccc(F)cc1` [8 k], 3100 nM corresponded to half-maximal inhibition (IC50).
Same read-out and setting: the same measure for `CC(C)(C)OC(=O)NCc1ccccc1-c1ccccc1C(=O)N[C@@H](CO)Cc1ccccc1` [8 m]: 5200 nM.
Still for that read-out and setting: the figure for `COC(=O)C(Cc1ccccn1)NC(=O)c1ccccc1-c1ccccc1CNC(=O)OC(C)(C)C` (stereo not drawn) [8 n] is 3700 nM; for `CC(C)(C)OC(=O)NCc1ccccc1-c1ccccc1C(=O)NCCc1ccccn1` [8 o] it is 8400 nM; for `CC(C)C(NC(=O)c1ccccc1-c1ccccc1CNC(=O)OCc1ccccc1)C(N)=O` (stereo not drawn) [8 p] it is 1400 nM.
For the molecule `CCN(Cc1ccncc1)C(=O)c1ccccc1-c1ccccc1CNC(=O)OCc1ccccc1` [8 q], the 50% inhibitory concentration (IC50) turned out to be 7300 nM.
For `COC(=O)C(CC(C)C)NC(=O)c1ccccc1-c1ccccc1CNC(=O)OCc1ccccc1` (stereo not drawn) [8 r], the midpoint of inhibition, the IC50, lay at 1000 nM. Compared with the last molecule, the IC50 is about 7.3-fold lower.
On the same count and under the same terms, the same measure for `O=C(NCc1ccccc1-c1ccccc1C(=O)NCCCC(F)(F)F)OCc1ccccc1` [8 s]: 1000 nM.
The molecule `CN(C)c1ccc(CNC(=O)c2ccccc2-c2ccccc2CNC(=O)OCc2ccccc2)cc1` [8 x] displayed a concentration for half-maximal inhibition (IC50) of 3300 nM.
Consider `CC(C)NC(=O)CNC(=O)c1ccccc1-c1ccccc1CNC(=O)OCc1ccccc1` [8 y], for which it took 2800 nM to reach half-maximal inhibition (IC50).
Same read-out and setting: the figure for `COC(=O)C(Cc1ccccn1)NC(=O)c1ccccc1-c1ccccc1CNC(=O)OCc1ccccc1` (stereo not drawn) [8 z] is 1600 nM; for `O=C(NCCc1ccccn1)c1ccccc1-c1ccccc1CNC(=S)Nc1ccccc1` [9 c] it is 2000 nM; for `O=C(NCCc1ccccn1)c1ccccc1-c1ccccc1CNC(=S)NCc1ccccc1` [9 f] it is 2200 nM.
The same measure, in the same setting: the figure for `O=C(NCc1ccccc1-c1ccccc1C(=O)NCCc1ccccn1)Nc1ccc(F)cc1F` [11 b] is 7300 nM.
`COCCNC(=O)c1ccccc1-c1ccccc1CNC(=O)Nc1ccc(Cl)cc1` [11 g]: the half-maximal inhibitory concentration (IC50) was 7800 nM.
The same measure, in the same setting: the figure for `O=C(NCc1ccccc1-c1ccccc1C(=O)NCCc1ccccn1)Nc1ccc(C(F)(F)F)cc1` [11 m] is 3300 nM.
`O=C(NCc1ccccc1-c1ccccc1C(=O)NCc1ccccn1)Nc1ccc(F)cc1F` [11 n]: 5900 nM corresponded to half-maximal inhibition (IC50).
The same measure, in the same setting: the figure for `O=C(NCc1ccccc1-c1ccccc1C(=O)NCCc1ccccn1)Nc1cccc(C(F)(F)F)c1` [11 o] is 4400 nM.
`O=C(NCc1ccccc1-c1ccccc1C(=O)NCCOc1ccccc1)Nc1ccc(F)cc1F` [11 p] displayed an IC50 of 7300 nM.
On the same count and under the same terms, the figure for `Cc1cccc(S(=O)(=O)NCc2ccccc2-c2ccccc2C(=O)N[C@@H](Cc2ccccc2)C(N)=O)c1` [12 f] is 11300 nM.

Still in this experiment, the particulars now being: human Kv1.5 expressed in Xenopus laevis oocytes; voltage jumps to 0 mV and 40 mV, 500 ms; room temperature; inhibition of Kv1.5 control current, Hill equation.
`O=C(NCc1ccccn1)c1ccccc1-c1ccccc1CNC(=S)NCCc1ccccc1` [9 g] registered an IC50 of 2200 nM.
Same read-out and setting: the same measure for `COc1ccc(NC(=O)NCc2ccccc2-c2ccccc2C(=O)NCCc2ccccn2)cc1` [11 a]: 2300 nM; for `O=C(NCc1ccccc1-c1ccccc1C(=O)NCc1ccccn1)Nc1ccc(C(F)(F)F)cc1` [11 d]: 3300 nM.
Still for that read-out and setting: the figure for `COc1cc(CNC(=O)c2ccccc2-c2ccccc2CNC(=O)Nc2ccc(F)cc2F)cc(OC)c1OC` [11 h] is 5800 nM.
Molecule `O=C(NCc1ccccc1-c1ccccc1C(=O)NCCc1ccccn1)Nc1ccc(Cl)cc1` [11 l] gave a 50% inhibitory concentration (IC50) of 2700 nM.

As usually defined, the IC50 is the concentration needed to halve the response being measured. A low value points to greater potency in that assay.

Source of the values: patent US7514582B2, “2′-substituted 1,1′-biphenyl-2-carboxamides, processes for their preparation, their use as medicaments, and pharmaceutical preparations comprising them” (Sanofi-Aventis Deutschland GmbH, priority 1999, dated 2009).
